13 molecules from ChEMBL document CHEMBL1135542, “Successful virtual screening for novel inhibitors of human carbonic anhydrase: strategy and experimental confirmation” (J Med Chem, 2002) can be followed below.

The target in assay [1] is T1, Carbonic anhydrase 2 (Homo sapiens, UniProt P00918).
Assay [2] deals with T1, Carbonic anhydrase 2. The source holds these as a separate data set.
Assay [3] concerns the target T1, Carbonic anhydrase 2. The source holds these as a separate data set.

pIC50, pKd, pKi: −log10 of the molar value.

The molecule `NC(=O)NCCOCCOCCNC(=O)c1ccc(S(N)(=O)=O)cc1` had a pKd at Carbonic anhydrase 2 [1] of 7.37. On the same count and under the same terms, as for `CN(C)c1cccc2c(S(N)(=O)=O)cccc12`, the figure is 4.03. Turning to `COCCOCCN(CCOC)c1cc2cc(S(N)(=O)=O)sc2s1`, at Carbonic anhydrase 2 [2], the pIC50 was 8.55. The pKi at Carbonic anhydrase 2 [3] is 8.80. On to `CCCCCCCCCS(=O)(=O)C(F)S(N)(=O)=O` (configuration not stated), for which, on Carbonic anhydrase 2 [2], the pIC50 is 8.52. For `CN(C)S(=O)(=O)Oc1ccc2nc(S(N)(=O)=O)sc2c1`, at Carbonic anhydrase 2 [2], the pIC50 is 8.92. In turn, `CC1(C)O[C@H]2[C@@H]3OS(=O)(=O)O[C@@H]3CC[C@@]2(COS(N)(=O)=O)O1` had a pIC50 at Carbonic anhydrase 2 [2] of 6.89.

`CCN[C@H]1CN(CCCCOC)S(=O)(=O)c2sc(S(N)(=O)=O)cc21` gave a pIC50 at Carbonic anhydrase 2 [2] of 8.49. Besides, the pKd on Carbonic anhydrase 2 [1] is 9.89. For the molecule `CC(C)(C)C(=O)Oc1ccc2sc(S(N)(=O)=O)cc2c1`, at Carbonic anhydrase 2 [2], the pIC50 was 8.59. `NS(=O)(=O)c1cc2cc(N3CCSCC3)sc2s1` had a pIC50 at Carbonic anhydrase 2 [2] of 8.59. On Carbonic anhydrase 2 [3], the pKi is 9.36. For `NS(=O)(=O)c1cc2cc(N3CCOCC3)sc2s1` the same measures were 8.52 and 8.96.

The molecule `NS(=O)(=O)OCCOc1ccc(-n2ccnc2)cc1` gave a pKi at Carbonic anhydrase 2 [3] of 8.15.

In turn, `CN(C)Cc1cc(S(=O)(=O)c2ccc(S(N)(=O)=O)s2)ccc1O` had a pIC50 at Carbonic anhydrase 2 [2] of 9.15.

As to `N[C@@H](Cc1ccccc1)C(=O)NCCOCCOCCNC(=O)c1ccc(S(N)(=O)=O)cc1` [PHENYLALANYLAMINODI(ETHYLOXY)ETHYL BENZENESULFONAMIDEAMINOCARBONYLBENZENESULFONAMIDE], the pKd at Carbonic anhydrase 2 [1] is 7.85.

The term pKd denotes the negative decadic logarithm of the Kd, by convention in mol/L. A higher pKd goes with a small Kd. For orientation: pIC50 means −log10 of the IC50, conventionally taken in molar units. As a reminder, the pKi is the negative decadic logarithm of the Ki, by convention in mol/L. A lower pKi goes with a high Ki.
